What was measured:
[1] = test system: B16-F10 (murine melanoma); test: in vitro; type: cell-based
From the text: For selected compounds, 6a–6f, we performed a determination of the cytotoxicity in a wider variety of cancer and non-cancerous cell lines (see Table S2, Supplementary Materials) in order to learn the characteristic features of selectivity or the similarity of biological properties.
The HT-1080 (human connective tissue fibrosarcoma, ATCC® CCL-121™), MH-22A (mouse hepatocarcinoma, ECACC Cat. No. 96121721), A-549 (human lung carcinoma, ATCC® CCL-185™), NIH3T3 (Swiss Albino mouse embryo fibroblast, ECACC Cat. No. 93061524), Hek293 (human embryonic kidney, ATCC® CRL-1573™), BHK-21 (Syrian hamster kidney, ATCC® CCL-10™), A-431 (human epidermoid carcinoma, ATCC® CRL-1555™), Saos-2 (human osteosarcoma, ATCC® HTB-85™), HeLa (human epitheloid cervix carcinoma, ATCC® CCL-2™), U937 (human myeloid leukaemia, ATCC® CRL-1593.2™), C6 (rat glioma, ATCC® CCL-107™), and B16-F10 (murine melanoma, ATCC® CRL-6475™) cell lines were obtained from the American Type Culture Collection (ATCC) and European Collection of Authenticated Cell Cultures (ECACC).
HT-1080, MH-22A, A-549, NIH3T3, BHK-21, A-431, HeLa, and B16-F10 cells were cultured in Dulbecco’s Modified Eagle’s Medium (DMEM) with 2 mM glutamine and 10% foetal bovine serum (FBS). Hek293 cells were cultured in Eagle’s Minimum Essential Medium with 10% foetal bovine serum. U937 cells were cultured in RPMI-1640 Medium with 2 mM glutamine and 10% foetal bovine serum. C6 cells were cultured in Ham’s F12 Medium with 2 mM glutamine and 10% foetal bovine serum. Saos-2 cells were cultured in McCoy’s 5a Medium with 2 mM glutamine and 10% foetal bovine serum. The cells were incubated at 37 °C with 5% CO2, 95% air, and complete humidity. Once ~90% confluence was reached, they were detached using 0.05% trypsin/EDTA and counted. The cells were plated at optimally determined densities for the logarithmic phase of growth. These cells were then suspended at a concentration of 4000 cells/well for HT-1080, MH-22A, A-549, NIH3T3, BHK-21, A-431, HeLa, B16-F10, Hek293, and Saos-2 cells and a concentration of 9000 cells/well for U937, C6, Hek293, and GM08402 cells and added onto a 96-well plate. For background absorption, some wells remained cell free, i.e., as a blank control. Cells were incubated for 72 h at 37 °C and 5% CO2 where they were exposed to a media containing serial dilutions of the investigated compounds (n = 3). Cell viability was measured using the 3-(4,5-dimethylthiazol-2-yl)-2,5-diphenyl-tetrazolium bromide (MTT) assay. In brief, after incubating with compounds, the culture medium was removed and fresh medium with 0.2 mg/mL MTT was added to each well of the plate. After incubation (3 h, 37 °C, 5% CO2), the medium with MTT solution was removed and replaced with 200 µL DMSO and 25 µL Sorenson’s glycine buffer (glycine 0.1 M, NaCl 0.1 M, pH: 10.5 with 0.1 M NaOH). The plate was shaken for 15 min at room temperature and the optical density (OD) of the wells was determined using a multichannel spectrophotometer (Thermo Scientific Multiskan EX) at 540 nm. The quantity of the control cells was taken in calculations as 100%. The IC50 value was calculated using the program Graph Pad Prism® 3.0. […]

[2] = test system: murine bone-marrow-derived macrophages (BMDMs); test: cells; conditions: Mus musculus, BMDM, 24 h, read-out: IC50 (BMDM viability)
Experimental: In this study, we used murine bone-marrow-derived macrophages (BMDMs) to evaluate the staining potential of the 6e compound in primary immune cells. […] To assess toxicity, the BMDMs were stained with various concentrations (0.1–100 μM) of compound 6e, and after 24 h, cell viability was measured using the CCK-8 assay (Figure 5).
To determine the cytotoxicity of the SP compound 6e, the cells were stained with various concentrations of the dye (0, 0.1, 1, 5, 10, and 100 μM). Briefly, 2 × 10^4 cells were plated in a 96-well plate in 100 μL of the medium. After 24 h, the cells were washed once and a solution of compound 6e in PBS was added to the cells. The cells were incubated in a humidified 5% CO2 incubator at 37 °C for 15–20 min. Then, the dye solution was replaced with medium. […] After 24 h, the medium was replaced with 10 μL of CCK-8 reagent in 100 μL of fresh medium. The cells were incubated in a humidified 5% CO2 incubator at 37 °C for 1–4 h. The absorbance at 450 nm was measured using a microplate spectrophotometer (BioTek Instruments, Winooski, VT, USA). Cell viability was calculated as a percentage of non-treated cell absorbance. IC50 values were calculated as the concentration at which 50% of the cells were viable.

BHK-21 cells = test: Cell passaging assay, flow cytometry on day 6; type: cell-based, Syrian hamster; conditions: BHK-21, passaged twice, six days of culture; 25 μM 6e or 1 μM Deep Red
Experimental: In order to assess the stability of staining after prolonged cell culture, the stained BHK-21 cells (Day 1) were passaged twice (Days 2 and 4) and cultured for six days in total (Day 6, Figure 4). On day 6, the cells were collected and analysed by flow cytometry. […] It can be concluded that, in contrast to the Deep Red cell tracker, SP compound 6e effectively stains cells and can be used for up to 6 days of cell culture.
For the cell passaging, on day 0, BHK-21 cells were plated on a 6-well plate with a seeding density of 1.5 × 10^5 cells per well. On day 1, the cells were stained with 25 μM compound 6e or 1 μM CellTracker™ Deep Red dye as described above. […] On day 6, cells were collected for flow cytometry analysis. The cells were kept at 4 °C and analysed as described above.

| SMILES | Cytotoxicity IC50 B16-F10 [1] [µg/mL] | IC50 [2] [µM] | positive fluorescent cells on day 6 (BHK-21 cells) [%] |
| --- | --- | --- | --- |
| CCCCCCCCCCCCCCCC[n+]1ccc(C=Cc2cc(OC)c(OC)c(OC)c2)cc1.[Br-] [Compound 6b] | 0.63 | – | – |
| CCCCCCCCCCCCCCCC[n+]1ccc(C=CC=Cc2cc3c4c(c2)CCCN4CCC3)cc1.[Br-] [Compound 6e, 1-hexadecyl-4-(4-(2,3,6,7-tetrahydro-1H,5H-pyrido[3,2,1-ij]quinolin-9-yl)buta-1,3-dien-1-yl)pyridin-1-ium bromide] | – | 9.2 ± 1.5 | 15.0 ± 0.7 |
